PubChem BioAssay AID489033 (Sanford-Burnham Center for Chemical Genomics, 2010)
Calls of active or inactive are those of the source. The rule behind the calls is not given here.

Each compound was assayed on 697B B-cell line, NF-kB luciferase reporter luminescence (assay: inhibitors of B-cell NF-kB luciferase signal – 697B cells, luminescence, selectivity assay for T-cell antigen receptor NF-kB inhibitors, dose response (AID 489033)).

Structure (SMILES) | IC50
CC/C=C/CC(=O)N[C@@H](c1ccccc1)[C@@H](O)C(=O)O[C@H]1C[C@@]2(O)[C@@H](OC(=O)c3ccccc3)C3[C@](C)(C(=O)[C@H](OC(C)=O)C(=C1C)C2(C)C)[C@@H](O)C[C@H]1OC[C@@]31OC(C)=O (stereo partly drawn) | > 80 µM (inactive)
Cc1ccc(NC(=O)CSc2nc(-c3ccco3)cc(C(F)(F)F)n2)cc1C | > 80 µM (inactive)
CCOC(=O)c1[nH]c(C)c(C(=O)OCC(=O)NC(C)c2ccc(F)cc2)c1C (stereo not drawn) | > 80 µM (inactive)
Cc1ccc(C(=O)Nc2ncc(Cc3ccc(SC(F)F)cc3)s2)cc1 | > 80 µM (inactive)
C/C=C(\C)C(=O)N[C@@H](c1ccccc1)[C@@H](O)C(=O)O[C@H]1C[C@@]2(O)[C@@H](OC(=O)c3ccccc3)C3[C@](C)(C(=O)[C@H](OC(C)=O)C(=C1C)C2(C)C)[C@H](O)C[C@H]1OC[C@@]31OC(C)=O (stereo partly drawn) | > 80 µM (inactive)
CCOc1cccc(/C=N/Nc2ccc(S(=O)(=O)N(CC)CC)cn2)c1O | 11.3 µM
CN=c1scc(-c2cccs2)n1/N=C/c1ccccc1O | 1.33 µM
CCN(CC)c1ccc(-c2nn3c(-c4n[nH]c5c4CCC5)nnc3s2)cc1 | > 80 µM (inactive)
O=[N+]([O-])c1ccc(O)c(/C=N/Nc2ccc(Cl)nn2)c1 | > 80 µM (inactive)
Cn1nc(C(C)(C)C)cc1C(=O)NCc1cc(F)cc2c1OCOC2 | > 80 µM (inactive)
N/C(=N\OCc1ccc([N+](=O)[O-])cc1)c1ccccn1 | 2.43 µM
CC(C)Nc1ccc(C(CC(N)=O)NC(=O)Cc2ccc(Br)cc2)cc1[N+](=O)[O-] (stereo not drawn) | 37.8 µM (inactive)
Cc1nc(SCC(=O)Nc2nc3ccccc3s2)c(C#N)c(C)c1C | < 0.16 µM
N#C/C(=C\c1ccc(OCc2ccc(C(=O)O)cc2)cc1)C(=O)N1CCOCC1 | 5.92 µM
COc1ccc(NC(=O)/C(Cl)=C(/Cl)S(=O)Cc2ccccc2Cl)cn1 (stereo not drawn) | 1.27 µM
Cc1ccc(NS(=O)(=O)c2ccc(C(=O)NC3CCN(Cc4ccccc4)CC3)cc2)cc1 | 45.5 µM (inactive)
COc1ccc(CS(=O)/C(Cl)=C(/Cl)C(=O)Nc2ccc(OC)nc2)cc1 (stereo not drawn) | 1.57 µM
COc1cc(C(=O)Nc2ccc3c(c2)CCN3C(C)=O)cc(OC)c1OC | > 80 µM (inactive)
C=CCn1c(C)cc(C2=NNC(=NCC)SC2)c1C | < 0.16 µM
Cc1noc(C)c1COc1cccc(C(=O)OCC(=O)N2CC(=O)Nc3ccccc32)c1 | > 80 µM (inactive)
CCOC(=O)COc1cccc2c(=O)n(CC(=O)NCc3ccc(F)cc3)ccc12 | > 80 µM (inactive)
CCN(CC)c1ccc2nc3ccc(N)cc3[n+](-c3ccccc3)c2c1 | 57.5 µM (inactive)
CC(C)Nc1ccc(C(CC(N)=O)NC(=O)c2ccc(Br)cc2)cc1[N+](=O)[O-] (stereo not drawn) | > 80 µM (inactive)
O=C(Nc1nc(-c2ccccn2)cs1)c1ccc(Cl)s1 | < 0.16 µM

Structure (SMILES) | IC50
COc1cccc(CN(C)C(=O)c2cc(COc3ccc4ncccc4c3)on2)c1 | > 80 µM (inactive)
Cc1nc(NCc2ccco2)c2c(C)c(C)sc2n1 | 5.3 µM
O=C1CC(c2cccc(Br)c2)c2cc3c(cc2N1)CCC3 (stereo not drawn) | 30.7 µM (inactive)
COc1ccc(NC(=O)C(=O)NCC2CCCN2S(=O)(=O)c2ccc(C)cc2)cc1 (stereo not drawn) | > 80 µM (inactive)
CCCCc1ccc(NC(=O)c2ccc(N(C)S(C)(=O)=O)cc2)cc1 | > 80 µM (inactive)
CC1=Nc2ccccc2/C1=C\c1sc(Nc2ccc(C)cc2)nc1O | 61 µM (inactive)
CC#CC(=O)N1CCC(n2nccc2NC(=O)c2ccc3c(c2)OCO3)CC1 | > 80 µM (inactive)
CC(C)CCOc1cccc(OCC(=O)Nc2ccncc2)c1 | > 80 µM (inactive)
COC(=O)CCC(=O)NC(=S)Nc1sc(C)c(C)c1C(N)=O | > 80 µM (inactive)
CCOc1cc(C(=O)N/N=C/C(Br)=C/c2ccccc2)cc(OCC)c1OCC | 35.6 µM (inactive)
CCn1ncc(C2=NOC(C(=O)NCc3ccccc3)C2)c1C (stereo not drawn) | > 80 µM (inactive)
O=c1cc(-c2ccccc2)[nH]c2cc(Cl)ccc12 | > 80 µM (inactive)
COc1ccc(OC)c(Nc2cc(-c3ccccc3)nc(N)n2)c1 | > 80 µM (inactive)
CC(=O)Nc1ccc(S(=O)(=O)N2c3ccccc3C(C)=CC2(C)C)cc1 | > 80 µM (inactive)
Nc1nc(-c2ccccc2)cc(N2CCCCC2)n1 | > 80 µM (inactive)
COc1cc(/C=C/[N+](=O)[O-])ccc1OCc1cccc(C(=O)O)c1 | 12 µM
COc1ccccc1C1=NOC(COc2ccc3c(C)cc(=O)oc3c2)C1 (stereo not drawn) | > 80 µM (inactive)
CCN(CC)c1ccc(-c2nn3c(-c4ccccc4OC)nnc3s2)cc1 | > 80 µM (inactive)
COc1ccc(C2=NOC(C(=O)NCc3ccc(F)cc3)C2)cc1OC (stereo not drawn) | > 80 µM (inactive)
CCCCCCCCCCn1ccc(=N)cc1 | 11.7 µM
CCc1cc(C(=O)NC2CCCc3c2cnn3-c2cccc(C)c2C)n(C)n1 (stereo not drawn) | > 80 µM (inactive)
C/C=C/COC(=O)c1[nH]c2c(c1C)C(=O)CC(c1ccco1)C2 (stereo not drawn) | > 80 µM (inactive)
O=C(Nc1cccc(C(F)(F)F)c1)c1sc(Cl)nc1C(F)(F)F | 1.37 µM
O=c1cc(-c2cccc(F)c2)[nH]c2ccccc12 | > 80 µM (inactive)
